The values that follow come from US20240336608A1, “IL4I1 INHIBITORS AND METHODS OF USE” (Merck Sharp & Dohme LLC, priority 2023, published 2024).

pEC50: −log10 of the molar value.

The pEC50 is −log10 of the EC50, conventionally taken in molar units.

The target in the test is T1, recombinant IL4I1 (Homo sapiens, UniProt Q96RQ9).
T1 construct: purchased R&D Systems 5684-AO-020
T1 sequence (Q96RQ9 22-567): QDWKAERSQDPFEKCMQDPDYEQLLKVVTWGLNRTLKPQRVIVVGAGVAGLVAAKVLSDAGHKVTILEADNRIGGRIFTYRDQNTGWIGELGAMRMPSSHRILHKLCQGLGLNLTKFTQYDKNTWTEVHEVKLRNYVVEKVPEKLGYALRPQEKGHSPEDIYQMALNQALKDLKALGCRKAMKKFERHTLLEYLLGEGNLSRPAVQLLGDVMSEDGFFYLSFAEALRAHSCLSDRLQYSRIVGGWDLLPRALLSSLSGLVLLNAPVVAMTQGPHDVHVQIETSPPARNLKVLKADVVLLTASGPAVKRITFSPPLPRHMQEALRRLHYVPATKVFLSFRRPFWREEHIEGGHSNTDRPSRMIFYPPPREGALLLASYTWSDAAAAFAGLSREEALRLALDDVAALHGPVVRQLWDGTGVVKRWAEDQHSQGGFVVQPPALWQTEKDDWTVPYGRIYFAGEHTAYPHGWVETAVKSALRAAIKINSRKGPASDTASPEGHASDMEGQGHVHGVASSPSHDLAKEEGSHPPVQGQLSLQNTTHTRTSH
Put plainly: IL4I1 Enzymatic Assay (Amplex Red/HRP coupled detection of H2O2, fluorescence). Format: biochemical. The following applies: 1 nM recombinant IL4I1; four-hour pre-incubation with compound; 1 mM each Phe, Tyr, Trp; ten-point titration. In short, it runs like this:
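H2O2 output was coupled to resorufin fluorescence (ex 544/em 590) via 0.05 mM Amplex Red and 1 U/mL HRP. Substrate: Phe, Tyr, Trp at 1 mM each; enzyme 1 nM, 4 h compound pre-incubation, 120 min reaction, pH 7.0 Hepes. EC50 by nonlinear four-parameter regression, 1:3 ten-point titration.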

In the case of `Cc1ccc(-n2cc(C(=O)NCc3cc(-c4ccccc4Cl)no3)nn2)c(C)n1` [Example 220, N-{[3-(2-chlorophenyl)-1,2-oxazol-5-yl]methyl}-1-(2,6-dimethylpyridin-3-yl)-1H-1,2,3-triazole-4-carboxamide], the pEC50 was 6.71.

`Cc1ccc(-n2cc(C(=O)NCc3cc(-c4cccc(Cl)c4)no3)nn2)c(C)n1` [Example 221, N-{[3-(3-chlorophenyl)-1,2-oxazol-5-yl]methyl}-1-(2,6-dimethylpyridin-3-yl)-1H-1,2,3-triazole-4-carboxamide]: the pEC50 was 6.14.

Regarding `Cc1ccc(-n2cc(C(=O)NCc3cc(-c4ccccc4Cl)on3)nn2)c(C)n1` [Example 222, N-{[5-(2-chlorophenyl)-1,2-oxazol-3-yl]methyl}-1-(2,6-dimethylpyridin-3-yl)-1H-1,2,3-triazole-4-carboxamide], the pEC50 was 6.76.

In the case of `Cc1ccc(-n2cc(C(=O)NCc3cc(-c4cccc(F)c4)no3)nn2)c(C)n1` [Example 223, 1-(2,6-dimethylpyridin-3-yl)-N-{[3-(3-fluorophenyl)-1,2-oxazol-5-yl]methyl}-1H-1,2,3-triazole-4-carboxamide], the pEC50 is 7.24.

`Cn1cc(C(=O)NCc2cc(-c3ccccc3Cl)no2)nn1` [Example 224, N-{[3-(2-chlorophenyl)-1,2-oxazol-5-yl]methyl}-1-methyl-1H-1,2,3-triazole-4-carboxamide]: the pEC50 was 6.08.

Take `Cn1cc(C(=O)NCc2cc(-c3ccccc3Cl)on2)nn1` [Example 225, N-{[5-(2-chlorophenyl)-1,2-oxazol-3-yl]methyl}-1-methyl-1H-1,2,3-triazole-4-carboxamide]: the pEC50 was 6.07.

Turning to `Cn1cc(C(=O)NCc2cc(-c3cccc(F)c3)no2)nn1` [Example 226, N-{[3-(3-fluorophenyl)-1,2-oxazol-5-yl]methyl}-1-methyl-1H-1,2,3-triazole-4-carboxamide], the pEC50 was 6.46.

For `Cc1ccc(-n2cc(C(=O)NCc3nnc(-c4ccc(F)cc4)s3)nn2)c(C)n1` [Example 227, 1-(2,6-dimethylpyridin-3-yl)-N-{[5-(4-fluorophenyl)-1,3,4-thiadiazol-2-yl]methyl}-1H-1,2,3-triazole-4-carboxamide], the pEC50 is 7.16.

Turning to `Cc1ccc(-c2cc(C(=O)NCc3nnc(-c4ccccc4)s3)no2)c(C)n1` [Example 228, 5-(2,6-dimethylpyridin-3-yl)-N-[(5-phenyl-1,3,4-thiadiazol-2-yl)methyl]-1,2-oxazole-3-carboxamide], the pEC50 is 7.29.

As for `COc1ccc(-n2cc(C(=O)NCc3nnc(-c4ccccc4)s3)nn2)c(C)n1` [Example 229, 1-(6-methoxy-2-methylpyridin-3-yl)-N-((5-phenyl-1,3,4-thiadiazol-2-yl)methyl)-1H-1,2,3-triazole-4-carboxamide], the pEC50 is 8.10.

Consider `Cc1nc(O)ccc1-n1cc(C(=O)NCc2nnc(-c3ccccc3)s2)nn1` [Example 230, 1-(6-hydroxy-2-methylpyridin-3-yl)-N-((5-phenyl-1,3,4-thiadiazol-2-yl)methyl)-1H-1,2,3-triazole-4-carboxamide], for which the pEC50 was 8.22.

Regarding `O=C(NCc1cc(-c2ccccc2)no1)c1cn(CC(F)(F)F)nn1` [Example 231, N-((3-phenylisoxazol-5-yl)methyl)-1-(2,2,2-trifluoroethyl)-1H-1,2,3-triazole-4-carboxamide], the pEC50 is 7.52.

Turning to `O=C(NCc1cc(-c2ccccc2)on1)c1cn(CC(F)(F)F)nn1` [Example 232, N-((5-phenylisoxazol-3-yl)methyl)-1-(2,2,2-trifluoroethyl)-1H-1,2,3-triazole-4-carboxamide], the pEC50 is 8.22.

On to `O=C(NCc1nnc(-c2ccccc2)s1)c1cn(CCO)nn1` [Example 233, 1-(2-hydroxyethyl)-N-((5-phenyl-1,3,4-thiadiazol-2-yl)methyl)-1H-1,2,3-triazole-4-carboxamide], for which the negative logarithm of the EC50 (pEC50) was 8.00.

With `Cc1ccc(-n2cc(C(=O)NCc3cc(-c4ccccc4)no3)nn2)c(C)n1` [Example 234, 1-(2,6-dimethylpyridin-3-yl)-N-((3-phenylisoxazol-5-yl)methyl)-1H-1,2,3-triazole-4-carboxamide], the pEC50 is 8.05.

As to `Cc1ccc(-n2cc(C(=O)NCc3cc(-c4ccccn4)no3)nn2)c(C)n1` [Example 235, 1-(2,6-dimethylpyridin-3-yl)-N-((3-(pyridin-2-yl)isoxazol-5-yl)methyl)-1H-1,2,3-triazole-4-carboxamide], the pEC50 is 6.41.

On to `COc1ccc(-n2cc(C(=O)NCc3nnc(-c4ccccc4)s3)nn2)cn1` [Example 236, 1-(6-methoxypyridin-3-yl)-N-((5-phenyl-1,3,4-thiadiazol-2-yl)methyl)-1H-1,2,3-triazole-4-carboxamide], for which the pEC50 was 7.92.

Take `Cc1ccc(-n2cc(C(=O)NCc3cc(-c4ccccc4)on3)nn2)c(C)n1` [Example 237, 1-(2,6-dimethylpyridin-3-yl)-N-((5-phenylisoxazol-3-yl)methyl)-1H-1,2,3-triazole-4-carboxamide]: the pEC50 is 8.15.

On to `Cc1ccc(-n2cc(C(=O)NCc3cc(-c4ccccn4)on3)nn2)c(C)n1` [Example 238, 1-(2,6-dimethylpyridin-3-yl)-N-((5-(pyridin-2-yl)isoxazol-3-yl)methyl)-1H-1,2,3-triazole-4-carboxamide], for which the pEC50 is 7.12.

For `O=C(NCc1nnc(-c2ccccc2)s1)c1nnn2ccccc12` [Example 239, N-((5-phenyl-1,3,4-thiadiazol-2-yl)methyl)-[1,2,3]triazolo[1,5-a]pyridine-3-carboxamide], the pEC50 was 6.23.

As for `O=C(NCc1nnc(-c2ccccc2)s1)c1cn(-c2ccncc2)nn1` [Example 240, N-((5-phenyl-1,3,4-thiadiazol-2-yl)methyl)-1-(pyridin-4-yl)-1H-1,2,3-triazole-4-carboxamide], the pEC50 is 6.79.

As to `O=C(NCc1nnc(-c2ccccc2)s1)c1cn(Cc2ccccc2)nn1` [Example 241, 1-benzyl-N-((5-phenyl-1,3,4-thiadiazol-2-yl)methyl)-1H-1,2,3-triazole-4-carboxamide], the negative logarithm of the EC50 (pEC50) was 7.96.

For the compound `O=C(NCc1nnc(-c2ccccc2)s1)c1cn(-c2cccnc2)nn1` [Example 242, N-((5-phenyl-1,3,4-thiadiazol-2-yl)methyl)-1-(pyridin-3-yl)-1H-1,2,3-triazole-4-carboxamide], the negative-log EC50 (pEC50) was 6.15.

Consider `O=C(NCc1nnc(-c2ccncc2)s1)c1cn(C2CC2)nn1` [Example 243, 1-cyclopropyl-N-((5-(pyridin-4-yl)-1,3,4-thiadiazol-2-yl)methyl)-1H-1,2,3-triazole-4-carboxamide], for which the pEC50 is 7.64.

On to `O=C(NCc1cc(-c2ccncc2)on1)c1cn(C2CC2)nn1` [Example 246, 1-cyclopropyl-N-((5-(pyridin-4-yl)isoxazol-3-yl)methyl)-1H-1,2,3-triazole-4-carboxamide], for which the pEC50 was 6.98.

`CC(C)(O)c1cc(C(=O)NCc2cc(-c3ccccc3)no2)on1` [Example 247, 3-(2-hydroxypropan-2-yl)-N-((3-phenylisoxazol-5-yl)methyl)isoxazole-5-carboxamide]: the pEC50 was 6.04.

Turning to `CC(C)(O)c1cc(C(=O)NCc2cc(-c3ccccc3)on2)on1` [Example 248, 3-(2-hydroxypropan-2-yl)-N-((5-phenylisoxazol-3-yl)methyl)isoxazole-5-carboxamide], the pEC50 was 6.52.

Consider `O=C(NCc1nnc(-c2ccncc2)s1)c1cn(CC(F)(F)F)nn1` [Example 249, N-((5-(pyridin-4-yl)-1,3,4-thiadiazol-2-yl)methyl)-1-(2,2,2-trifluoroethyl)-1H-1,2,3-triazole-4-carboxamide], for which the pEC50 is 7.82.

As for `O=C(NCc1cc(-c2ccccc2)no1)c1cn(C2COC2)nn1` [Example 253, 1-(oxetan-3-yl)-N-((3-phenylisoxazol-5-yl)methyl)-1H-1,2,3-triazole-4-carboxamide], the pEC50 was 6.68.

As for `CC(C)(O)c1cc(C(=O)NCc2ccc(-c3ccccc3)nn2)on1` [Example 254, 3-(2-hydroxypropan-2-yl)-N-((6-phenylpyridazin-3-yl)methyl)isoxazole-5-carboxamide], the pEC50 is 6.00.

For `COC(=O)C(C)(C)n1cc(C(=O)NCc2nnc(-c3ccccc3)s2)nn1` [Example 255, methyl 2-methyl-2-(4-(((5-phenyl-1,3,4-thiadiazol-2-yl)methyl)carbamoyl)-1H-1,2,3-triazol-1-yl)propanoate], the negative-log EC50 (pEC50) is 7.35.

Regarding `CC[C@H](c1ccc(F)cc1)n1cc(C(=O)NCc2nnc(-c3ccccc3)s2)nn1` [Example 256, (R)-1-(1-(4-fluorophenyl)propyl)-N-((5-phenyl-1,3,4-thiadiazol-2-yl)methyl)-1H-1,2,3-triazole-4-carboxamide], the pEC50 is 8.52.

Regarding `CC[C@@H](c1ccc(F)cc1)n1cc(C(=O)NCc2nnc(-c3ccccc3)s2)nn1` [Example 257, (S)-1-(1-(4-fluorophenyl)propyl)-N-((5-phenyl-1,3,4-thiadiazol-2-yl)methyl)-1H-1,2,3-triazole-4-carboxamide], the pEC50 is 7.72.
